The text below walks through data of PMC6161288, “Bioavailability of Eurycomanone in Its Pure Form and in a Standardised Eurycoma longifolia Water Extract” (Pharmaceutics, 2018).

The nature of data set [1]: Pharmacokinetics of eurycomanone in mice (intravenous and oral). It is filed as in vivo, CD-1 mice. To be noted: plasma; for AUC(0-t): read-out: AUC0–8. The text has this:
(§1) The ethical approval for the animal experiments conducted in India was granted from the Animal Ethics Committee, Aurigene Discovery Technologies, Bangalore, India. Eight male Wistar rats (12 weeks old; weighing 250–350 g) and eight Caeserean Derived-1 (CD-1) mice (weighing 20–30 g) were obtained from the Animal House, Aurigene Discovery Technologies, Bangalore, India. They were supplied with standard rodent diets and drinking water ad libitum. Each rodent species (i.e., rats and mice) were divided into two groups. One group (n = 3 for each rodent species) was administered with eurycomanone via the intravenous route (IV) and another group (n = 3 for each rodent species) via the oral route (PO) using oral gavage intubation needle. Two animals of each of the species were used as a control and they received reverse osmosis water. All rats underwent jugular vein cannulation surgery 72 h prior to the administration of the eurycomanone.
(§2) Eurycomanone (rats: 1.5 mg/mL for IV route and 3.0 mg/mL for PO route; mice: 0.5 mg/mL for IV route and 1.0 mg/mL for PO route) samples were prepared fresh on the day of dosing. For the IV administration, eurycomanone was dissolved in 3% NMP and 97% of 10% HPCD in saline. For the oral administration, eurycomanone was dissolved in 3% NMP and 97% of 30% HPCD in saline. Both samples were sonicated before use. The SWE (5 mg/mL for IV route, 10 mg/mL for PO route) was prepared fresh on the day of dosing. For the IV administration, the SWE was dissolved in reverse osmosis water and filtered (0.2 µm pore size) before administration. The SWE for the PO administration was prepared using the same method, except without filtering. The animals were not fasted and doses given were based on the body weights prior to dosing.
(§3) Blood specimens (approximately 0.30–0.40 mL via the jugular vein cannula for rats and 0.10–0.20 mL via submanibular bleeding for mice) were collected at time points 0.083 (IV group only), 0.25, 0.5, 1, 2, 4, 6, and 8 h post-dosing with eurycomanone. At the experiment end point, the animals were euthanized by excess isoflurane inhalation followed by cervical dislocation. In the experiment using SWE, the rats were placed in metabolic cages (Techniplast, West Chester, PA, USA) and blood (approximately 0.30–0.40 mL collected via the jugular vein cannula), urine, and faeces specimens were collected at the same time points with the above plus one additional time point of 24 h. Kidney and liver specimens were collected at necropsy, where the rats were euthanized by CO2 inhalation followed by cervical dislocation. All blood specimens were centrifuged (10,000 rpm, 10 min) to obtain plasma and were stored at −80 °C until processed. Urine and faeces specimens were collected into plastic containers on wet ice while the organ specimens were snap-frozen in liquid nitrogen and maintained at −80 °C until processed.
(§4) Plasma specimens (100 µL), collected from the eurycomanone experiment were added with the internal standard solution (10 µL). Plasma proteins were precipitated with ACN (300 µL), vortex-mixed for 5 min, and centrifuged at 4000 rpm for 7 min. The supernatant was collected and evaporated using a nitrogen evaporator for 20 min at 50 °C. Thereafter, they were reconstituted with the mobile phase (500 µL) and transferred into LC-MS vials for analysis.
(§5) Eurycomanone detection in the pure eurycomanone experiments was done via the LC-MS/MS system consisting of an Agilent 1260 Infinity HPLC system and an AB SCIEX API 4000™ Triple-Quadrupole mass spectrometer equipped with TurboIonSpray® probe and atmospheric pressure chemical ionization (APCI) (AB Sciex LLC, Framingham, MA, USA). Electrospray ionization (ESI) was performed in positive ion mode. The analytical column was Agilent Zorbax Eclipse-C18 (4.6 mm I.D. × 150 mm, 3.5 µm). The mobile phase consisted of 0.1% formic acid (solvent A) and 90% ACN with 0.1% formic acid (solvent B). […]

The nature of data set [2]: Pharmacokinetics of eurycomanone (pure compound) in rats (intravenous and oral). It is filed as in vivo. Conditions: male, Wistar, rat, plasma; for AUC(0-t): read-out: AUC0–8.
Source text: as §1, §2, §3, §4, §5

Data set [3] can be described thus: Chemical stability in simulated gastrointestinal fluids. It is filed as physicochemical. Conditions: GSF (pH 2), FESSIF (pH 5.0), FASSIF (pH 6.5). On the procedure: The chemical stability of eurycomanone was estimated in gastric simulated fluid (GSF), pH 2; fasted simulated intestinal fluid (FASSIF), pH 6.5; fed simulated intestinal fluid (FESSIF), pH 5.0; and in 150 mM NaHCO3 at pH 9.2. Eurycomanone (3 µL) at 5 mM was added to 297 µL of the respective buffers. The mixture (100 µL) was added to 100 µL of ACN at time points 1 and 3 h and sent for LC-MS/MS analysis.

Data set [4] can be described thus: Liver microsome metabolic stability, human. Conditions: human liver microsomes. The data set is classed as in vitro ADME. On the procedure: The liver microsome stability assay of eurycomanone was estimated using phase I and phase II enzymes in five types of microsomes (mice, rat, dog, monkey, and human). Eurycomanone at 1 mM (20 µL), microsomes at 0.3 mg/mL (20 µL), and 10 mg/mL of alamethicin in 1:1 DMSO and methanol (20 µL) were preincubated at 37 °C for 10 min. The cofactor, 5 mM UDPGA (20 µL), and 1 mM NADPH (20 µL) were added to make the final assay volume of 100 µL. At timepoints 0, 15, 30, 45, 60, and 90 min, […] of the reaction mixture is taken out and added to the stop solution. The supernatants (10,000 rpm, 10 min, 4 °C) were collected and analysed using LC-MS/MS. The standards used for mice and rat liver microsomes were propranolol and dasatinib. The standards used with the dog and monkey liver microsomes were propranolol and midazolam, while the standards used with the human liver microsomes were propranolol and terfinadine.
(In general: Liver microsomes are vesicles of endoplasmic reticulum, rich in cytochrome P450 enzymes.)

A further data set in a line: Plasma stability, rat. The data set is classed as in vitro ADME. To be noted: 5 µM, 37 °C, up to 4 h. On the procedure: (§6) The plasma stability was estimated by preparing 5 µM of eurycomanone in 600 µL plasma in triplicates. The plasma stability of eurycomanone was determined in five types of plasma (mice, rat, dog, monkey, and human). The reaction was kept at 37 °C and ACN (100 µL) was added at timepoints 0, 30 min, and 1, 2, and 4 h to the reaction mixture (100 µL). The supernatant (10,000 rpm, 10 min, 4 °C) was collected and analysed by LC-MS/MS. The standards (propantheline bromide and enalapril) were analysed in triplicates.

The nature of another data set: Plasma stability, dog. The data set is classed as in vitro ADME. To be noted: 5 µM, 37 °C, up to 4 h. The protocol:
as §6

One may read the bioavailability as the share of a dose that reaches the circulation, judged against a reference dose that is usually intravenous. Usually Tmax stands for the time at which the peak concentration occurs. By Cmax is commonly meant the peak of the concentration-time curve.

As for `C=C1[C@@H](O)[C@]2(O)OC[C@]34[C@H]2[C@@]2(C)[C@H](O)C(=O)C=C(C)[C@@H]2C[C@H]3OC(=O)[C@H](O)[C@@]14O` [Eurycomanone], the “Observed Cmax” value in data set [1] (10 mg/kg oral, 10 mg/kg) was determined as 334.7 ng/mL. The AUC(0-t) is 221 ng·h/mL in data set [1] (CD-1, mouse, 1 mg/kg intravenous); 1210 ng·h/mL in data set [1] (CD-1, mouse, 10 mg/kg oral); 970 ng·h/mL in data set [2] (3 mg/kg intravenous); 1150 ng·h/mL in data set [2] (30 mg/kg oral). The half-life was 0.3 h in data set [1] (CD-1, mouse, 1 mg/kg intravenous, read-out: Half-life (t1/2) (converted)) and 0.3 h in data set [2] (3 mg/kg intravenous, read-out: Half-life (t1/2) (converted)). Moreover, the clearance was 64.2 mL/min/kg in data set [1] (CD-1, mouse, 1 mg/kg intravenous, read-out: Plasma Clearance (CL) (converted)) and 45.7 mL/min/kg in data set [2] (3 mg/kg intravenous, read-out: Plasma Clearance (CL) (converted)). For the same compound, the Vd in data set [1] (CD-1, mouse, 1 mg/kg intravenous, read-out: Volume of Distribution at Steady State (Vss)) was 1.51 L/kg; in data set [2] (3 mg/kg intravenous, read-out: Volume of Distribution at Steady State (Vss)) it was 0.95 L/kg. Moreover, the bioavailability in data set [1] (CD-1, mouse, 10 mg/kg oral vs 1 mg/kg intravenous, read-out: Bioavailability (F)) came to 54.9%; in data set [2] (30 mg/kg oral vs 3 mg/kg intravenous, read-out: Bioavailability (F)), 11.8%. The Tmax in data set [1] (CD-1, mouse, 10 mg/kg oral, read-out: Observed Tmax) was 2 h; in data set [2] (30 mg/kg oral, read-out: Observed Tmax), 2 h. Besides, the Cmax is 335 ng/mL in data set [1] (CD-1, mouse, po, 10 mg/kg, 10 mg/kg oral, read-out: Observed Cmax) and 238 ng/mL in data set [2] (30 mg/kg oral, read-out: Observed Cmax). For the same compound, the “chemical stability (percentage remaining after 3 h of incubation)” value was “high stability” in data set [3] and “chemically stable across all pH values tested” in data set [3] (listed as eurycomanone). Moreover, the “Half-life (t1/2)” value in data set [4] is greater than 1.5 h. The same compound registered a half-life at 200 µM in data set [4] greater than 1.5 h. For the same compound, the CLint scaled at 200 µM in data set [4] (read-out: Intrinsic clearance (Clint)) is 52.4 mL/min/kg. The plasma stability entry in “Plasma stability, rat” is “highly stable”; in the data set “Plasma stability, dog”, “highly stable”.
